Reference: patent US10953012B2, “Heterocyclic compounds for the inhibition of pask” (BioEnergenix LLC, priority 2011, dated 2021)

Molecular target: PASK (Homo sapiens (Human), UniProt Q96RG2)
Experiment: PAS Kinase FRET Assay
Type: biochemical
Conditions: TR-FRET assay; read-out: IC50 Kinase Domain
Text: The aim of the FRET assay is to determine the inhibition potential of test compounds on targeted kinase. This assay platform provides a homogenous screening method for measuring kinase activity by quantitating the amount of phospho-substrate in solution following a kinase reaction.
In the presence of kinase and ATP, the Ulight-peptide is phosphorylated and captured by an anti-phospho-substrate antibody, which brings the Eu chelate donor and Ulight acceptor dyes into close proximity. Upon excitation at 340 nm, the Eu chelate transfers its energy to the Ulight dye, resulting in a fluorescent light emission at 665 nm
Titration of kinase at 1 mM ATP was achieved via the following protocol. After making serial three-fold dilutions of PASK (Invitrogen) in reaction buffer across the plate; 5 μl of kinase dilution and 5 μl substrate/ATP mix were added to the wells of the white Optiplate-384 (PerkinElmer). The contents of the plate were and incubated at RT for 1 h. The reaction was stopped by adding 5 μl of stop solution to each test well followed by mixing and incubation at RT for 10 minutes. 5 μl of detection mix (detection antibody diluted in detection buffer) was added; the contents of the plate were mixed and then incubated in the dark for 1 hour at RT. The signal was recorded at TR-FRET mode (665 nm/615 nm). The results were graphed to calculate the EC50.
Titration of ATP at the EC50 concentration of kinase to determine ATP Km, app. was performed using the following method. After making serial dilutions of ATP (Invitrogen), 5 μl of ATP dilution and 5 μl substrate/kinase mix were added to the wells of the white Optiplate-384 (PerkinElmer). The contents of the plate were and incubated at RT for 1 h. The reaction was stopped by adding 5 μl of stop solution to each test well followed by mixing and incubation at RT for 10 minutes. 5 μl of detection mix (detection antibody diluted in detection buffer) was added; the contents of the plate were mixed and then incubated in the dark for 1 hour at RT. The signal was recorded at TR-FRET mode (665 nm/615 nm). The results were graphed to calculate the EC50 as the ATP Km, app.
Compound screening was done via the following method. 10 mM stock solution of test compound in DMSO was prepared by dissolving test compound in DMSO at RT for 1 hour, and then sonicating at 100% output for 8 minutes. If compound is not soluble under this condition, it was diluted to 3 mM. Kinase reaction buffer was prepared containing 10 mM MgCl2, 50 mM HEPES, 1 mM EGTA, 0.01% TWEEN-20, 2 mM DTT. Serial dilutions of the test compounds were prepared at 4×final assay concentrations using Freedom EVO200® dispensing system as follows: 12×10^−5 M, 4×10^−5 M, 1.33×10^−5 M, 4.44×10^−6 M, 1.48×10^−6 M, 4.92×10^−7 M, 1.65×10^−7 M, […], 1.82×10^−8M, 6.09×10^−9, 2.03×10^−9 M. Test compounds (2.5 μl at 4× the final assay concentration) was added to wells using Freedom EVO200® dispensing system. As a positive control, 2.5 μl of positive compound was added to assay wells, and 2.5 μl of DMSO to assay wells as vehicle control. Kinase solution was prepared in reaction buffer at 2×final assay concentration. Kinase solution (5 μl) was added to each well of the assay plate. The substrate and ATP solution was prepared in kinase reaction buffer at 4×final assay concentration. The kinase reaction was started by adding 2.5 μl of substrate+ATP mix solution to each well of the assay plate. The plate is mixed on a plate shaker; then covered and allowed to react for 2 hours in the dark at 25° C. without shaking. The reaction was stopped by adding 5 μl of stop solution to each test well followed by mixing and incubation at RT for 10 minutes in the dark. 5 μl of detection mix (detection antibody diluted in detection buffer) was added; the contents of the plate were mixed and then incubated in the dark for 1 hour at RT. The signal was recorded at TR-FRET mode (665 nm/615 nm).

Chain of PASK (Q96RG2 999-1251): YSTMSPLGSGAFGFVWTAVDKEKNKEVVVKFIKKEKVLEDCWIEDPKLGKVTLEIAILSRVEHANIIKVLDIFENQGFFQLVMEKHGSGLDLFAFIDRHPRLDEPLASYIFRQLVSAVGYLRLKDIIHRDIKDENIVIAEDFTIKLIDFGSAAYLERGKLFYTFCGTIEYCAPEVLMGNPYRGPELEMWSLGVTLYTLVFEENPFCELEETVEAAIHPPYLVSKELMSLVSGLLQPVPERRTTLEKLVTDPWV

IC50	SMILES
≤ 10 µM	Cc1cc2cc(-c3cc(=O)n4ncc(-c5ccccn5)c4[nH]3)ccc2o1 [Example 169, 5-(2-Methylbenzofuran-5-yl)-3-(pyridin-2-yl)pyrazolo[1,5-a]pyrimidin-7(4H)-one]
≤ 10 µM	Cc1cc2cc(-c3cc(=O)n4nc(N)c(-c5ccccn5)c4[nH]3)ccc2o1 [Example 170, 2-Amino-5-(2-methylbenzofuran-5-yl)-3-(pyridin-2-yl)pyrazolo[1,5-a]pyrimidin-7(4H)-one]
≤ 10 µM	Nc1nn2c(=O)cc(-c3ccc(C(F)(F)F)cc3)[nH]c2c1-c1ccccn1 [Example 172, 2-amino-3-(pyridin-2-yl)-5-(4-(trifluoromethyl)phenyl)pyrazolo[1,5-a]pyrimidin-7(411)-one]
≤ 10 µM	O=c1cc(-c2ccc(C(F)(F)F)cc2)[nH]c2c(-c3ccccn3)cnn12 [Example 173, 3-(Pyridin-2-yl)-5-(4-(trifluoromethyl)phenyl)pyrazolo[1,5-a]pyrimidin-7(4H)-one]
≤ 10 µM	Nc1nn2c(=O)cc(-c3cccc(F)c3)[nH]c2c1-c1ccccn1 [Example 174, 2-Amino-5-(3-fluorophenyl)-3-(pyridin-2-yl)pyrazolo[1,5-a]pyrimidin-7(4H)-one]
≤ 10 µM	O=c1cc(-c2cccc(F)c2)[nH]c2c(-c3ccccn3)cnn12 [Example 175, 5-(3-Fluorophenyl)-3-(pyridin-2-yl)pyrazolo[1,5-a]pyrimidin-7(4H)-one]
≤ 10 µM	Nc1nn2c(=O)cc(-c3ccc(F)cc3F)[nH]c2c1-c1ccccn1 [Example 176, 2-Amino-5-(2,4-difluorophenyl)-3-(pyridin-2-yl)pyrazolo[1,5-a]pyrimidin-7(4H)-one]
≤ 10 µM	O=c1cc(-c2ccc(F)cc2F)[nH]c2c(-c3ccccn3)cnn12 [Example 177, 5-(2,4-Difluorophenyl)-3-(pyridin-2-yl)pyrazolo[1,5-a]pyrimidin-7(4H)-one]
≤ 10 µM	CCCNC(=O)c1c(N)nn2c(=O)cc(-c3ccc4c(c3)OCO4)[nH]c12 [Example 178, 2-Amino-5-(benzo[d][1,3]dioxol-5-yl)-7-oxo-N-propyl-4,7-dihydropyrazolo[1,5-a]pyrimidine-3-carboxamide]
≤ 10 µM	CCC(=O)Nc1nn2c(=O)cc(-c3ccc4c(c3)OCO4)[nH]c2c1-c1ccccn1 [Example 180, N-(5-(Benzo[d][1,3]dioxol-5-yl)-7-oxo-3-(pyridin-2-yl)-4,7-dihydropyrazolo[1,5-a]pyrimidin-2-yl)propionamide]
≤ 10 µM	CC(C)C(=O)Nc1nn2c(=O)cc(-c3ccc4c(c3)OCO4)[nH]c2c1-c1ccccn1 [Example 181, N-(5-(Benzo[d][1,3]dioxol-5-yl)-7-oxo-3-(pyridin-2-yl)-4,7-dihydropyrazolo[1,5-a]pyrimidin-2-yl)isobutyramide]
≤ 10 µM	CC(=O)Nc1nn2c(=O)cc(-c3ccc4[nH]ncc4c3)[nH]c2c1-c1ccccn1 [Example 182, N-(5-(1H-Indazol-5-yl)-7-oxo-3-(pyridin-2-yl)-4,7-dihydropyrazolo[1,5-a]pyrimidin-2-yl)acetamide]
≤ 10 µM	CCc1nn2c(=O)cc(-c3ccc4[nH]ncc4c3)[nH]c2c1-c1ccccn1 [Example 183, 2-Ethyl-5-(1H-indazol-5-yl)-3-(pyridin-2-yl)pyrazolo[1,5-a]pyrimidin-7(4H)-one]
≤ 10 µM	Cn1ncc2cc(-c3cc(=O)n4nc(N)c(-c5ccccn5)c4[nH]3)ccc21 [Example 184, 2-Amino-5-(1-methyl-1H-indazol-5-yl)-3-(pyridin-2-yl)pyrazolo[1,5-a]pyrimidin-7(4H)-one]
≤ 10 µM	Cc1nn2c(=O)cc(-c3ccc4[nH]nnc4c3)[nH]c2c1Cc1ccccc1 [Example 185, 5-(1H-Benzo[d][1,2,3]triazol-5-yl)-3-benzyl-2-methylpyrazolo[1,5-a]pyrimidin-7(4H)-one]
≤ 10 µM	Cn1ncc2cc(-c3cc(=O)n4ncc(-c5ccccn5)c4[nH]3)ccc21 [Example 186, 5-(1-Methyl-1H-indazol-5-yl)-3-(pyridin-2-yl)pyrazolo[1,5-a]pyrimidin-7(4H)-one]
